In data set [1] the target is T1, human Dopamine D2L receptor (Homo sapiens, UniProt P14416).
T1 construct: expressed in transfected cells; host or cells: CHO cells
As to the kind of experiment: In vitro binding affinity for human D2L receptor ([3H]spiperone competition). The conditions noted are these: membranes of human D2L receptor-transfected CHO cells, 30 min, 37° C. The procedure:
Frozen membranes of human Dopamine D2L receptor-transfected CHO cells were thawed, briefly homogenised using an Ultra-Turrax T25 homogeniser and diluted in Tris-HCl assay buffer containing NaCl, CaCl2, MgCl2, KCl (50, 120, 2, 1, and 5 mM respectively, adjusted to pH 7.7 with HCl) to an appropriate protein concentration optimised for specific and non-specific binding. Radioligand [^3H]Spiperone (NEN, specific activity ˜70 Ci/mmol) was diluted in assay buffer at a concentration of 2 nmol/L. Prepared radioligand (50 μl), along with 50 μl of either the 10% DMSO control, Butaclamol (10^−6 mol/l final concentration), or compound of interest, was then incubated (30 min, 37° C.) with 400 μl of the prepared membrane solution. Membrane-bound activity was filtered through a Packard Filtermate harvester onto GF/B Unifilterplates and washed with ice-cold Tris-HCl buffer (50 mM; pH 7.7; 6×0.5 ml). Filters were allowed to dry before adding scintillation fluid and counting in a Topcount scintillation counter. Percentage specific bound and competition binding curves were calculated using S-Plus software (Insightful).

T1 sequence (P14416 whole entry): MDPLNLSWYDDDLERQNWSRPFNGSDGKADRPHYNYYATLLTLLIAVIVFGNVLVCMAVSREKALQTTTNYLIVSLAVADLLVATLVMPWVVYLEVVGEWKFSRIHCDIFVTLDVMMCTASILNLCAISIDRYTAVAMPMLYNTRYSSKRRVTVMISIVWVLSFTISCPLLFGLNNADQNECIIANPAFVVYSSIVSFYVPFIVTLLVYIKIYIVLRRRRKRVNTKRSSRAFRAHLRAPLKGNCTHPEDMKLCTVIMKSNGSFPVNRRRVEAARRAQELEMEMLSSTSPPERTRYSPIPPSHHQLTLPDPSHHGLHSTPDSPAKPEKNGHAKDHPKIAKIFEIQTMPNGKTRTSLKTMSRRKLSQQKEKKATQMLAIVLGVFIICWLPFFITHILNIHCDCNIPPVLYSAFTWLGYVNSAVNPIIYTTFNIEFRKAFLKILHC

The molecule `COc1ccc(CN2CCC(Nc3ccc(C(F)(F)F)nn3)CC2)cc1F` [Example E41, N-[1-(3-fluoro-4-methoxybenzyl)piperidin-4-yl]-6-(trifluoromethyl)pyridazin-3-amine] had an IC50 in data set [1] below 6.31 µM. `Fc1ccc(CN2CCC(Nc3ccc(C(F)(F)F)nn3)CC2)cc1` [Example E2, N-[1-(4-fluorobenzyl)piperidin-4-yl]-6-(trifluoromethyl)pyridazin-3-amine] yielded a melting point of 163.3 to 165.3 °C. Regarding `CN(c1ccc(Cl)nn1)C1CCN(Cc2cccc(C(F)(F)F)c2)CC1` [Example E25, N-[1-(3-trifluoromethylbenzyl)piperidin-4-yl]-N-methyl-6-chloropyridazin-3-amine], the IC50 in data set [1] is below 6.31 µM. Molecule `Fc1ccc(CN2CCC(Nc3ccc(C(F)(F)F)nn3)CC2)c(F)c1` [Example E42, N-[1-(2,4-difluorobenzyl)piperidin-4-yl]-6-(trifluoromethyl)pyridazin-3-amine] had a 50% inhibitory concentration (IC50) in data set [1] below 6.31 µM.

Consider `Fc1ccccc1CN1CCC(Nc2ccc(C(F)(F)F)nn2)CC1` [Example E8, N-[1-(2-fluorobenzyl)piperidin-4-yl]-6-(trifluoromethyl)pyridazin-3-amine], for which, in data set [1], the IC50 was below 6.31 µM. For the molecule `CC(c1ccc(F)c(F)c1)N1CCC(Nc2ccc(C(F)(F)F)nn2)CC1` (racemic) [Example E45, (R,S)—N-[1-(3,4-difluoro-α-methylbenzyl)piperidin-4-yl]-6-(trifluoromethyl)pyridazin-3-amine], the IC50 in data set [1] was below 6.31 µM. `CC(c1ccc(F)cc1)N1CCC(Nc2ccc(C(F)(F)F)nn2)CC1` (stereo not drawn) [Example E44, N-[1-(4-fluoro-α-methylbenzyl)piperidin-4-yl]-6-(trifluoromethyl)pyridazin-3-amine] gave an IC50 in data set [1] below 6.31 µM.

The term IC50 denotes the point on the concentration scale where inhibition reaches its midpoint. Higher therefore signals weaker potency in that assay. A word on the melting point: it is the temperature of the solid-liquid transition.

These data come from patent publication US9468640B2, “Piperidin-4-yl-pyridazin-3-ylamine derivatives as fast dissociating dopamine 2 receptor antagonists” (Janssen Pharmaceutica N.V., priority 2005, dated 2016).
